Tests used:
KRas^G12C = target: T1, KRas^G12C (Homo sapiens, UniProt P01116, G12C); experiment: KRas binding assay (TR-FRET tracer displacement), KRas G12C; details: TR-FRET tracer displacement, KRas G12C
T1 construct: Biotinylated KRas (corresponding to amino acids 1-169, produced at Accelegan Inc.); biotin (biotinylated); purchased Accelegan Inc

KRas^G12D = target: T2, KRas^G12D (Homo sapiens, UniProt P01116, G12D); experiment: KRas binding assay (TR-FRET tracer displacement), KRas G12D
T2 construct: Biotinylated KRas (corresponding to amino acids 1-169, produced at Accelegan Inc.); biotin (biotinylated); purchased Accelegan Inc
T2 sequence (P01116 1-169 isoform P01116-2 G12D): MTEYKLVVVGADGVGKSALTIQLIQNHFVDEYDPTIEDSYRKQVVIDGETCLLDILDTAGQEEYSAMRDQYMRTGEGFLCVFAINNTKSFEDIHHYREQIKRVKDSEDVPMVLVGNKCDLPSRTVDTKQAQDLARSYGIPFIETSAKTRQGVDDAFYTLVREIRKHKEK

KRas^Q61H = target: T3, KRas^Q61H (Homo sapiens, UniProt P01116, Q61H); experiment: KRas binding assay (TR-FRET tracer displacement), KRas Q61H; details: TR-FRET tracer displacement, KRas Q61H
T3 construct: Biotinylated KRas (corresponding to amino acids 1-169, produced at Accelegan Inc.); biotin (biotinylated); purchased Accelegan Inc
T3 sequence (P01116 1-169 isoform P01116-2 Q61H): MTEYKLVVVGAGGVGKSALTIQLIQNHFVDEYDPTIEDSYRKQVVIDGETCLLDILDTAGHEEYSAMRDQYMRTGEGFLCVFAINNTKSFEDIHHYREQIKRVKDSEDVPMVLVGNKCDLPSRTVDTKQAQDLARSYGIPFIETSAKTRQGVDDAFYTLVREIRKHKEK

[1] = test system: KRas-mediated phosphorylation of ERK in H358 cells; experiment: Inhibition of KRas-mediated phosphorylation of ERK (Cisbio HTRF pERK), H358 cells; format: cell-based; details: Homo sapiens, NCI-H358, 3 h, single point, 100 nM compound, 3 hrs
How it was run: (§1)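 HTRF readout of phospho-ERK in cell lysates after 3 hrs of compound exposure. Dosing: 10 uM top, 3-fold steps, 10 doses, final DMSO 0.8%. Min control: 0.2 uM Trametinib. Lysis ran 40 mins at 4° C, and antibody detection 2 hrs at room temperature.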

[2] = test system: KRas-mediated phosphorylation of ERK in A549 cells; experiment: Inhibition of KRas-mediated phosphorylation of ERK (Cisbio HTRF pERK), A549 cells; format: cell-based; details: Homo sapiens, A549, 3 h, single point, 100 nM compound, 3 hrs
How it was run: (§2)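 Cells were seeded at 6,000 per well and treated for 3 hrs with compound in a 10-dose, 3-fold series from 10 uM (0.8% final DMSO), with 0.2 uM Trametinib as Min control. Lysates made at 4° C over 40 mins were incubated 2 hrs at room temperature with d2- and Cryptate-labelled antibodies, then read by HTRF.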

KRas^G12R = target: T4, KRas^G12R (Homo sapiens, UniProt P01116, G12R); experiment: KRas binding assay (TR-FRET tracer displacement), KRas G12R
T4 construct: Biotinylated KRas (corresponding to amino acids 1-169, produced at Accelegan Inc.); biotin (biotinylated); purchased Accelegan Inc
T4 sequence (P01116 1-169 isoform P01116-2 G12R): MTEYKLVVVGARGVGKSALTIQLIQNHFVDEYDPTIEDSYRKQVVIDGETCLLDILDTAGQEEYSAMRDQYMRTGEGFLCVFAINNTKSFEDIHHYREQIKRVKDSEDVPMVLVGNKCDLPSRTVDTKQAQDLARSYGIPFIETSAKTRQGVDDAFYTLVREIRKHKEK

KRas^G13D = target: T5, KRas^G13D (Homo sapiens, UniProt P01116, G13D); experiment: KRas binding assay (TR-FRET tracer displacement), KRas G13D; details: TR-FRET tracer displacement, KRas G13D
T5 construct: Biotinylated KRas (corresponding to amino acids 1-169, produced at Accelegan Inc.); biotin (biotinylated); purchased Accelegan Inc
T5 sequence (P01116 1-169 isoform P01116-2 G13D): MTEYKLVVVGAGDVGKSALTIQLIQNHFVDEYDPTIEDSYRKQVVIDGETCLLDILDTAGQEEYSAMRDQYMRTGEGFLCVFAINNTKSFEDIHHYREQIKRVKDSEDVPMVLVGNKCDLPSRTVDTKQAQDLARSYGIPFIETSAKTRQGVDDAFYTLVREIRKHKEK

[3] = test system: KRas-mediated phosphorylation of ERK in H727 cells; experiment: Inhibition of KRas-mediated phosphorylation of ERK (Cisbio HTRF pERK), H727 cells; format: cell-based; details: Homo sapiens; for inhibition at 0.1 µM: NCI-H727, 3 h, single point, 100 nM compound, 3 hrs, H727 cells; for IC50: NCI-H727, H727 cells, HTRF pERK
How it was run: as §1

KRas^G12A = target: T6, KRas^G12A (Homo sapiens, UniProt P01116, G12A); experiment: KRas binding assay (TR-FRET tracer displacement), KRas G12A; details: TR-FRET tracer displacement, KRas G12A
T6 construct: Biotinylated KRas (corresponding to amino acids 1-169, produced at Accelegan Inc.); biotin (biotinylated); purchased Accelegan Inc
T6 sequence (P01116 1-169 isoform P01116-2 G12A): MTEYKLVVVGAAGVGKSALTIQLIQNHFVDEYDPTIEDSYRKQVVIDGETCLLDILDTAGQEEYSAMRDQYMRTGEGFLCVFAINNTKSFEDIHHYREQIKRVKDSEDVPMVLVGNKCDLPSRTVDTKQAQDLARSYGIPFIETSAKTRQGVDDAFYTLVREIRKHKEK

KRas^WT = target: T7, KRas^WT (Homo sapiens, UniProt P01116); experiment: KRas binding assay (TR-FRET tracer displacement), KRas WT; details: TR-FRET tracer displacement, KRas WT
T7 construct: Biotinylated KRas (corresponding to amino acids 1-169, produced at Accelegan Inc.); biotin (biotinylated); purchased Accelegan Inc
T7 sequence (P01116 1-169 isoform P01116-2): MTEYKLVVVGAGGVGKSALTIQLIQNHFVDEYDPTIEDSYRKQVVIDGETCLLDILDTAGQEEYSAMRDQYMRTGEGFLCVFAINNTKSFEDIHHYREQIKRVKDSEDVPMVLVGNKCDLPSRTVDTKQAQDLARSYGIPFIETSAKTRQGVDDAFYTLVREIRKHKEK

[4] = test system: KRas-mediated phosphorylation of ERK in AsPC-1 cells; experiment: Inhibition of KRas-mediated phosphorylation of ERK (Cisbio HTRF pERK), AsPC-1 cells; format: cell-based; details: Homo sapiens; for inhibition at 0.1 µM: ASPC1, 3 h, single point, 100 nM compound, 3 hrs, AsPC-1 cells; for IC50: ASPC1, AsPC-1 cells, HTRF pERK
How it was run: as §1

KRas^G12S = target: T8, KRas^G12S (Homo sapiens, UniProt P01116, G12S); experiment: KRas binding assay (TR-FRET tracer displacement), KRas G12S; details: TR-FRET tracer displacement, KRas G12S
T8 construct: Biotinylated KRas (corresponding to amino acids 1-169, produced at Accelegan Inc.); biotin (biotinylated); purchased Accelegan Inc
T8 sequence (P01116 1-169 isoform P01116-2 G12S): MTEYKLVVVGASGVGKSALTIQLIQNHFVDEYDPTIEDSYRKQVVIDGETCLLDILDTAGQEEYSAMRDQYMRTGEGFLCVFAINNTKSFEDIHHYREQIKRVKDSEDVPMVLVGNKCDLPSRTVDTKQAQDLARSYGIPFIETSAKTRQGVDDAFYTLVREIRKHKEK

KRas^G12V = target: T9, KRas^G12V (Homo sapiens, UniProt P01116, G12V); experiment: KRas binding assay (TR-FRET tracer displacement), KRas G12V
T9 construct: Biotinylated KRas (corresponding to amino acids 1-169, produced at Accelegan Inc.); biotin (biotinylated); purchased Accelegan Inc
T9 sequence (P01116 1-169 isoform P01116-2 G12V): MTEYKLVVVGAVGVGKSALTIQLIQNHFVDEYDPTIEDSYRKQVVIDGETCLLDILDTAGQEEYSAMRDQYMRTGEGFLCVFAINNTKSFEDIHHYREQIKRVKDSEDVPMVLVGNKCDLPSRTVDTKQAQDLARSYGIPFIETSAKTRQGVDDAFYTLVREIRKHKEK

[5] = test system: KRas-mediated phosphorylation of ERK in HCT116 cells; experiment: Inhibition of KRas-mediated phosphorylation of ERK (Cisbio HTRF pERK), HCT116 cells; format: cell-based; details: Homo sapiens, HCT-116, 3 h, single point, 100 nM compound, 3 hrs
How it was run: as §2

[6] = test system: KRas-mediated phosphorylation of ERK in H460 cells; experiment: Inhibition of KRas-mediated phosphorylation of ERK (Cisbio HTRF pERK), H460 cells; format: cell-based; details: Homo sapiens, NCI-H460, 3 h, single point, 100 nM compound, 3 hrs
How it was run: as §1

T1 sequence (P01116 1-169 isoform P01116-2 G12C): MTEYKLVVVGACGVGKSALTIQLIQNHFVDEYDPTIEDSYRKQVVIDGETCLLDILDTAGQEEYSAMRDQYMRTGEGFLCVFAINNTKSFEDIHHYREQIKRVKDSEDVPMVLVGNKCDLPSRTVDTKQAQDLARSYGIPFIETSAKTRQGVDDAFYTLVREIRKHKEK

| SMILES | IC50 (KRas^G12C) | IC50 (KRas^G12D) | IC50 (KRas^Q61H) | inhibition at 0.1 µM [1] | inhibition at 0.1 µM [2] | IC50 (KRas^G12R) | IC50 (KRas^G13D) | inhibition at 0.1 µM [3] | IC50 (KRas^G12A) | IC50 (KRas^WT) | inhibition at 0.1 µM [4] | IC50 (KRas^G12S) | IC50 (KRas^G12V) | inhibition at 0.1 µM [5] | inhibition at 0.1 µM [6] | IC50 [3] | IC50 [4] |
| --- | --- | --- | --- | --- | --- | --- | --- | --- | --- | --- | --- | --- | --- | --- | --- | --- | --- |
| Cc1cc2[nH]c(=O)[nH]c2c(-c2ncc3c(N4CCC[C@@](C)(O)C4)nc(OCC45CCCN4CCC5)nc3c2F)c1C [Example 733, 4-(8-fluoro-4-((R)-3-hydroxy-3-methylpiperidin-1-yl)-2-((tetrahydro-1H-pyrrolizin-7a(5H)-yl)methoxy)pyrido[4,3-d]pyrimidin-7-yl)-5,6-dimethyl-1,3-dihydro-2H-benzo[d]imidazol-2-one] | 1520 nM | 933 nM | 2280 nM | -2% | 7% | 2670 nM | 1410 nM | -10% | 1520 nM | 1370 nM | -27% | 1400 nM | 1050 nM |  |  |  |  |
| Cc1cc2[nH]nnc2c(-c2ncc3c(N4CCC[C@@](C)(O)C4)nc(OCC45CCCN4CCC5)nc3c2F)c1C [Example 734, (3R)-1-(7-(5,6-dimethyl-1H-benzo[d][1,2,3]triazol-4-yl)-8-fluoro-2-((hexahydro-1H-pyrrolizin-7a-yl)methoxy)pyrido[4,3-d]pyrimidin-4-yl)-3-methylpiperidin-3-ol] | 10600 nM | 8110 nM | 11400 nM |  |  | 20600 nM | 10500 nM | -3% | 10300 nM | 10500 nM | -18% | 11600 nM | 11600 nM | -13% | -3% |  |  |
| C[C@@]1(O)CCCN(c2nc(OCC34CCCN3CCC4)nc3c(F)c(-c4ccc(F)c5sc(N)nc45)ncc23)C1 [Example 735, (R)-1-(7-(2-amino-7-fluorobenzo[d]thiazol-4-yl)-8-fluoro-2-((hexahydro-1H-pyrrolizin-7a-yl)methoxy)pyrido[4,3-d]pyrimidin-4-yl)-3-methylpiperidin-3-ol] | 3130 nM | 1980 nM | 3530 nM |  |  | 3960 nM | 2140 nM | -31% | 2680 nM | 1840 nM | 14% | 2770 nM | 2590 nM | -2% | 5% |  |  |
| O=C1NC(=O)[C@]2(CCCN(c3nc(OCC45CCCN4CCC5)nc4c(F)c(-c5c(C6CC6)c(Cl)cc6[nH]ncc56)ncc34)C2)N1 [Example 779, (5R)-7-(7-(6-chloro-5-cyclopropyl-1H-indazol-4-yl)-8-fluoro-2-((hexahydro-1H-pyrrolizin-7a-yl)methoxy)pyrido[4,3-d]pyrimidin-4-yl)-1,3,7-triazaspiro[4.5]decane-2,4-dione] | < 2 nM | 2 nM | < 2 nM |  |  | 2 nM | < 2 nM |  | < 2 nM | < 2 nM |  | < 2 nM | < 2 nM |  |  | 9390 nM | > 10000 nM |
| Oc1cc(-c2ncc3c(N4C[C@@H]5C[C@H](C4)[C@H](O)C5)nc(OC[C@@]45CCCN4C[C@H](F)C5)nc3c2F)c2ccccc2c1C(F)(F)F [Example 782, (1R,5R,6R)-3-(8-fluoro-2-(((2R,7aS)-2-fluorohexahydro-1H-pyrrolizin-7a-yl)methoxy)-7-(3-hydroxy-4-(trifluoromethyl)naphthalen-1-yl)pyrido[4,3-d]pyrimidin-4-yl)-3-azabicyclo[3.2.1]octan-6-ol] | 2780 nM | 4650 nM | 4050 nM |  |  | 3740 nM | 2550 nM | -11% | 4370 nM | 4220 nM | 5% | 2570 nM | 2040 nM |  |  |  |  |
| Cc1cc2c(c(-c3ncc4c(N5CCC[C@@](C)(O)C5)nc(OCC56CCCN5CCC6)nc4c3F)c1C)CC(=O)N2 [Example 784, 4-(8-fluoro-2-((hexahydro-1H-pyrrolizin-7a-yl)methoxy)-4-((R)-3-hydroxy-3-methylpiperidin-1-yl)pyrido[4,3-d]pyrimidin-7-yl)-5,6-dimethylindolin-2-one] | 480 nM | 1320 nM | 746 nM |  |  | 4490 nM | 471 nM | 0% | 717 nM | 665 nM | 19% | 475 nM | 1920 nM | 9% | 9% |  |  |
| Cc1c(O)cc(-c2ncc3c(N4C[C@@H]5C[C@H](C4)[C@H](O)C5)nc(OC[C@@]45CCCN4C[C@H](F)C5)nc3c2F)c2ccccc12 [Example 790, (1R,5R,6R)-3-(8-fluoro-2-(((2R,7aS)-2-fluorohexahydro-1H-pyrrolizin-7a-yl)methoxy)-7-(3-hydroxy-4-methylnaphthalen-1-yl)pyrido[4,3-d]pyrimidin-4-yl)-3-azabicyclo[3.2.1]octan-6-ol] | 9220 nM | 11700 nM | 11000 nM |  |  | 5650 nM | 7770 nM | 15% | 8020 nM | 10600 nM | 9% | 5660 nM | 3740 nM |  |  |  |  |
| Cc1cc2[nH]nnc2c(-c2ncc3c(N4CCCC5(CNS(=O)(=O)N5)C4)nc(OCC45CCCN4CCC5)nc3c2F)c1C (stereo not drawn) [Example 855, 7-(7-(5,6-dimethyl-1H-benzo[d][1,2,3]triazol-4-yl)-8-fluoro-2-((tetrahydro-1H-pyrrolizin-7a(5H)-yl)methoxy)pyrido[4,3-d]pyrimidin-4-yl)-2-thia-1,3,7-triazaspiro[4.5]decane 2,2-dioxide] | 25 nM | 10 nM | 23 nM |  |  | 31 nM | 12 nM |  | 21 nM | 26 nM |  | 18 nM | 16 nM |  |  | > 10000 nM | > 10000 nM |
